# Results reported in PubChem BioAssay (NCI).
#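 GI50 is the concentration that inhibits growth by half. TGI marks complete inhibition of growth.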
# What was measured:
# Assay in all cases: DTP human tumour cell line panel, 384-well format
# 786-0 renal = test system: 786-0 renal
# A498 renal = test system: A498 renal
# ACHN renal = test system: ACHN renal
# BT-549 breast = test system: BT-549 breast
# CAKI-1 renal = test system: CAKI-1 renal
# CCRF-CEM leukemia = test system: CCRF-CEM leukemia
# COLO 205 colon = test system: COLO 205 colon
# DU-145 prostate = test system: DU-145 prostate
# HCC-2998 colon = test system: HCC-2998 colon
# HCT-116 colon = test system: HCT-116 colon
# HCT-15 colon = test system: HCT-15 colon
# HL-60(TB) leukemia = test system: HL-60(TB) leukemia
# HOP-62 NSCLC = test system: HOP-62 NSCLC
# HOP-92 NSCLC = test system: HOP-92 NSCLC
# HS 578T breast = test system: HS 578T breast
# IGROV1 ovarian = test system: IGROV1 ovarian
# K-562 leukemia = test system: K-562 leukemia
# KM12 colon = test system: KM12 colon
# LOX IMVI melanoma = test system: LOX IMVI melanoma
# M14 melanoma = test system: M14 melanoma
# MALME-3M melanoma = test system: MALME-3M melanoma
# MCF7 breast = test system: MCF7 breast
# MDA-MB-231 breast = test system: MDA-MB-231 breast
# MDA-MB-468 breast = test system: MDA-MB-468 breast
# NCI-H226 lung = test system: NCI-H226 lung
# NCI-H322M lung = test system: NCI-H322M lung
# NCI-H460 NSCLC = test system: NCI-H460 NSCLC
# NCI-H522 lung = test system: NCI-H522 lung
# NCI/ADR-RES ovarian = test system: NCI/ADR-RES ovarian
# OVCAR-4 ovarian = test system: OVCAR-4 ovarian
# PC-3 prostate = test system: PC-3 prostate
# RPMI-8226 leukemia = test system: RPMI-8226 leukemia
# RXF 393 renal = test system: RXF 393 renal
# SF-295 CNS = test system: SF-295 CNS
# SF-539 CNS = test system: SF-539 CNS
# SK-MEL-2 melanoma = test system: SK-MEL-2 melanoma
# SK-MEL-28 melanoma = test system: SK-MEL-28 melanoma
# SK-MEL-5 melanoma = test system: SK-MEL-5 melanoma
# SK-OV-3 ovarian = test system: SK-OV-3 ovarian
# SN12C renal = test system: SN12C renal
# SNB-19 CNS = test system: SNB-19 CNS
# SR leukemia = test system: SR leukemia
# T-47D breast = test system: T-47D breast
# TK-10 renal = test system: TK-10 renal
# UACC-257 melanoma = test system: UACC-257 melanoma
# UACC-62 melanoma = test system: UACC-62 melanoma
# UO-31 renal = test system: UO-31 renal
compound,measurement,setting,value
C[C@@H](Oc1cc(NS(=O)(=O)N2CCC2)nc(SCc2cccc(F)c2F)n1)[C@@H](O)CO,GI50,786-0 renal,> 100 µM
same,TGI,786-0 renal,> 100 µM
same,GI50,A498 renal,> 79 µM
same,TGI,A498 renal,> 100 µM
same,GI50,ACHN renal,> 100 µM
same,TGI,ACHN renal,> 100 µM
same,GI50,BT-549 breast,> 71.9 µM
same,TGI,BT-549 breast,> 100 µM
same,GI50,CAKI-1 renal,> 60.8 µM
same,TGI,CAKI-1 renal,> 100 µM
same,GI50,CCRF-CEM leukemia,> 63.3 µM
same,TGI,CCRF-CEM leukemia,> 100 µM
same,GI50,COLO 205 colon,> 89.8 µM
same,TGI,COLO 205 colon,> 100 µM
same,GI50,DU-145 prostate,> 100 µM
same,TGI,DU-145 prostate,> 100 µM
same,GI50,HCC-2998 colon,> 77.4 µM
same,TGI,HCC-2998 colon,> 100 µM
same,GI50,HCT-116 colon,> 100 µM
same,TGI,HCT-116 colon,> 100 µM
same,GI50,HCT-15 colon,> 100 µM
same,TGI,HCT-15 colon,> 100 µM
same,GI50,HL-60(TB) leukemia,> 36 µM
same,TGI,HL-60(TB) leukemia,> 51.2 µM
same,GI50,HOP-62 NSCLC,> 100 µM
same,TGI,HOP-62 NSCLC,> 100 µM
same,GI50,HOP-92 NSCLC,> 88.1 µM
same,TGI,HOP-92 NSCLC,> 100 µM
same,GI50,HS 578T breast,57.7 µM
same,TGI,HS 578T breast,> 100 µM
same,GI50,IGROV1 ovarian,> 100 µM
same,TGI,IGROV1 ovarian,> 100 µM
same,GI50,K-562 leukemia,> 68.3 µM
same,TGI,K-562 leukemia,> 100 µM
same,GI50,KM12 colon,98.3 µM
same,TGI,KM12 colon,> 100 µM
same,GI50,LOX IMVI melanoma,42.1 µM
same,TGI,LOX IMVI melanoma,> 100 µM
same,GI50,M14 melanoma,> 95.7 µM
same,TGI,M14 melanoma,> 100 µM
same,GI50,MALME-3M melanoma,> 82.1 µM
same,TGI,MALME-3M melanoma,> 100 µM
same,GI50,MCF7 breast,> 52.1 µM
same,TGI,MCF7 breast,> 100 µM
same,GI50,MDA-MB-231 breast,> 75.9 µM
same,TGI,MDA-MB-231 breast,> 100 µM
same,GI50,MDA-MB-468 breast,> 78.2 µM
same,TGI,MDA-MB-468 breast,> 100 µM
same,GI50,NCI-H226 lung,> 89.3 µM
same,TGI,NCI-H226 lung,> 100 µM
same,GI50,NCI-H322M lung,> 100 µM
same,TGI,NCI-H322M lung,> 100 µM
same,GI50,NCI-H460 NSCLC,> 100 µM
same,TGI,NCI-H460 NSCLC,> 100 µM
same,GI50,NCI-H522 lung,> 43.5 µM
same,TGI,NCI-H522 lung,> 100 µM
same,GI50,NCI/ADR-RES ovarian,> 100 µM
same,TGI,NCI/ADR-RES ovarian,> 100 µM
same,GI50,OVCAR-4 ovarian,> 72.7 µM
same,TGI,OVCAR-4 ovarian,> 100 µM
same,GI50,PC-3 prostate,> 76.7 µM
same,TGI,PC-3 prostate,> 100 µM
same,GI50,RPMI-8226 leukemia,20 µM
same,TGI,RPMI-8226 leukemia,> 60 µM
same,GI50,RXF 393 renal,> 81.5 µM
same,TGI,RXF 393 renal,> 100 µM
same,GI50,SF-295 CNS,> 100 µM
same,TGI,SF-295 CNS,> 100 µM
same,GI50,SF-539 CNS,> 100 µM
same,TGI,SF-539 CNS,> 100 µM
same,GI50,SK-MEL-2 melanoma,> 79.6 µM
same,TGI,SK-MEL-2 melanoma,> 100 µM
same,GI50,SK-MEL-28 melanoma,> 100 µM
same,TGI,SK-MEL-28 melanoma,> 100 µM
same,GI50,SK-MEL-5 melanoma,> 59.4 µM
same,TGI,SK-MEL-5 melanoma,> 100 µM
same,GI50,SK-OV-3 ovarian,> 83.6 µM
same,TGI,SK-OV-3 ovarian,> 100 µM
same,GI50,SN12C renal,> 100 µM
same,TGI,SN12C renal,> 100 µM
same,GI50,SNB-19 CNS,> 100 µM
same,TGI,SNB-19 CNS,> 100 µM
same,GI50,SR leukemia,> 100 µM
same,TGI,SR leukemia,> 100 µM
same,GI50,T-47D breast,> 100 µM
same,TGI,T-47D breast,> 100 µM
same,GI50,TK-10 renal,> 66 µM
same,TGI,TK-10 renal,> 100 µM
same,GI50,UACC-257 melanoma,> 87.1 µM
same,TGI,UACC-257 melanoma,> 100 µM
same,GI50,UACC-62 melanoma,> 57.2 µM
same,TGI,UACC-62 melanoma,> 100 µM
same,GI50,UO-31 renal,17.9 µM
same,TGI,UO-31 renal,34.3 µM
